{"source": "paper PMC5218480", "about": "(PLoS ONE, 2017)", "system": "MV-4-11 cells", "test": "Gene expression microarray analysis (Affymetrix PrimeView) and GSEA", "format": "cell-based, human", "parameters": "RFU PODN (11730768_x_at) / Fold change /veh PODN (11730768_x_at) / RFU LINC00158 (11744669_a_at) / Fold change /veh LINC00158 (11744669_a_at) / RFU DUSP10 (11751237_a_at) / Fold change /veh DUSP10 (11751237_a_at) / RFU ID3 (11757404_x_at) / Fold change /veh ID3 (11757404_x_at) / RFU PLEKHG5 (11737974_s_at) / Fold change /veh PLEKHG5 (11737974_s_at) / RFU LRRC4B (11730491_at) / Fold change /veh LRRC4B (11730491_at) / RFU GIMAP4 (11747438_a_at) / Fold change /veh GIMAP4 (11747438_a_at) / RFU KRT8 (11758183_x_at) / Fold change /veh KRT8 (11758183_x_at) / RFU CNN1 (11734310_a_at) / Fold change /veh CNN1 (11734310_a_at) / RFU VPS37D (11726825_at) / Fold change /veh VPS37D (11726825_at) / RFU C10orf10 (11716522_x_at) / Fold change /veh C10orf10 (11716522_x_at) / RFU KIR2DL2 /// KIR2DL4 /// KIR2DL5A /// KIR2DL5B /// KIR2DS1 /// KIR2DS2 /// KIR2DS3 /// KIR2DS4 /// KIR3DL3 /// KIR3DL3 /// KIR3DS1 (11738374_at) / Fold change /veh KIR2DL2 /// KIR2DL4 /// KIR2DL5A /// KIR2DL5B /// KIR2DS1 /// KIR2DS2 /// KIR2DS3 /// KIR2DS4 /// KIR3DL3 /// KIR3DL3 /// KIR3DS1 (11738374_at) / RFU C1QL1 (11718748_at) / Fold change /veh C1QL1 (11718748_at) / RFU TMPRSS4 (11747572_a_at) / Fold change /veh TMPRSS4 (11747572_a_at) / RFU HAMP (11756126_x_at) / Fold change /veh HAMP (11756126_x_at) / RFU RNFT2 (11725882_a_at) / Fold change /veh RNFT2 (11725882_a_at) / RFU NR4A2 (11747474_a_at) / Fold change /veh NR4A2 (11747474_a_at) / RFU ABCC12 (11746883_a_at) / Fold change /veh ABCC12 (11746883_a_at) / RFU TMEM136 (11760407_x_at) / Fold change /veh TMEM136 (11760407_x_at) / RFU CLDN22 /// WWC2 (11732394_at) / Fold change /veh CLDN22 /// WWC2 (11732394_at) / RFU HLA-DPB1 (11760878_x_at) / Fold change /veh HLA-DPB1 (11760878_x_at) / RFU SPINT1 (11716480_a_at) / Fold change /veh SPINT1 (11716480_a_at) / RFU GAP43 (11754022_s_at) / Fold change /veh GAP43 (11754022_s_at) / RFU A4GNT (11735810_at) / Fold change /veh A4GNT (11735810_at) / RFU PRB3 (11715151_x_at) / Fold change /veh PRB3 (11715151_x_at) / RFU TUBB4B (11761932_at) / Fold change /veh TUBB4B (11761932_at) / RFU CAPN14 (11732068_a_at) / Fold change /veh CAPN14 (11732068_a_at) / RFU TMCC2 (11721928_a_at) / Fold change /veh TMCC2 (11721928_a_at) / RFU IRGQ (11745062_a_at) / Fold change /veh IRGQ (11745062_a_at) / RFU FAM174B (11720279_a_at) / Fold change /veh FAM174B (11720279_a_at) / RFU TMPRSS4 (11748680_a_at) / Fold change /veh TMPRSS4 (11748680_a_at) / RFU FAM212B (11763350_a_at) / Fold change /veh FAM212B (11763350_a_at) / RFU PLEKHG5 (11743358_a_at) / Fold change /veh PLEKHG5 (11743358_a_at) / RFU ZSCAN30 (11745921_a_at) / Fold change /veh ZSCAN30 (11745921_a_at) / RFU CMKLR1 (11741424_a_at) / Fold change /veh CMKLR1 (11741424_a_at) / RFU LOC101060620 /// MAPK8IP1 (11723275_at) / Fold change /veh LOC101060620 /// MAPK8IP1 (11723275_at) / RFU SPTSSB (11747773_x_at) / Fold change /veh SPTSSB (11747773_x_at) / RFU PRSS12 (11739890_at) / Fold change /veh PRSS12 (11739890_at) / RFU BIN1 (11741810_x_at) / Fold change /veh BIN1 (11741810_x_at) / RFU WNT11 (11732464_a_at) / Fold change /veh WNT11 (11732464_a_at) / RFU C10orf10 (11716521_a_at) / Fold change /veh C10orf10 (11716521_a_at) / RFU C5orf56 (11738089_at) / Fold change /veh C5orf56 (11738089_at) / RFU CYB561 (11721691_x_at) / Fold change /veh CYB561 (11721691_x_at) / RFU ANKRD19P (11752326_a_at) / Fold change /veh ANKRD19P (11752326_a_at) / RFU OR2T12 /// OR2T33 /// OR2T8 (11738714_s_at) / Fold change /veh OR2T12 /// OR2T33 /// OR2T8 (11738714_s_at) / RFU VCAN (11748164_a_at) / Fold change /veh VCAN (11748164_a_at) / RFU JSRP1 (11732532_at) / Fold change /veh JSRP1 (11732532_at) / RFU KRTAP10-11 (11738290_x_at) / Fold change /veh KRTAP10-11 (11738290_x_at) / RFU MYO3A (11730013_a_at) / Fold change /veh MYO3A (11730013_a_at) / RFU EBF3 (11725865_a_at) / Fold change /veh EBF3 (11725865_a_at) / RFU CAMK2N1 (11719241_x_at) / Fold change /veh CAMK2N1 (11719241_x_at) / RFU C5orf56 (11738088_a_at) / Fold change /veh C5orf56 (11738088_a_at) / RFU OLFML3 (11715873_a_at) / Fold change /veh OLFML3 (11715873_a_at) / RFU LOC100653217 /// NTM (11731650_a_at) / Fold change /veh LOC100653217 /// NTM (11731650_a_at) / RFU MAPK11 (11762145_a_at) / Fold change /veh MAPK11 (11762145_a_at) / RFU FIZ1 (11724087_x_at) / Fold change /veh FIZ1 (11724087_x_at) / RFU OASL (11726364_x_at) / Fold change /veh OASL (11726364_x_at) / RFU SOX15 (11748057_x_at) / Fold change /veh SOX15 (11748057_x_at) / RFU CD79A (11719716_a_at) / Fold change /veh CD79A (11719716_a_at) / RFU HIST1H1D (11736915_at) / Fold change /veh HIST1H1D (11736915_at) / RFU CASKIN2 (11723855_a_at) / Fold change /veh CASKIN2 (11723855_a_at) / RFU LOC730098 (11760151_x_at) / Fold change /veh LOC730098 (11760151_x_at) / RFU OR4N2 (11742367_at) / Fold change /veh OR4N2 (11742367_at) / RFU PRRT2 (11749266_a_at) / Fold change /veh PRRT2 (11749266_a_at) / RFU SNX32 (11753110_a_at) / Fold change /veh SNX32 (11753110_a_at) / RFU CDHR5 (11726645_a_at) / Fold change /veh CDHR5 (11726645_a_at) / RFU RCAN1 (11760418_a_at) / Fold change /veh RCAN1 (11760418_a_at) / RFU FAM167A (11723789_a_at) / Fold change /veh FAM167A (11723789_a_at) / RFU FAM26E (11764081_at) / Fold change /veh FAM26E (11764081_at) / RFU ISYNA1 (11749810_s_at) / Fold change /veh ISYNA1 (11749810_s_at) / RFU ACY1 (11761880_at) / Fold change /veh ACY1 (11761880_at) / RFU 11764098_at / Fold change /veh 11764098_at / RFU SAMD14 (11745864_x_at) / Fold change /veh SAMD14 (11745864_x_at) / RFU NPB (11741838_a_at) / Fold change /veh NPB (11741838_a_at) / RFU TMPRSS6 (11731388_a_at) / Fold change /veh TMPRSS6 (11731388_a_at) / RFU KRTAP10-2 (11738614_at) / Fold change /veh KRTAP10-2 (11738614_at) / RFU ARHGAP8 /// PRR5-ARHGAP8 (11727945_x_at) / Fold change /veh ARHGAP8 /// PRR5-ARHGAP8 (11727945_x_at) / RFU KRTAP5-7 /// NADSYN1 (11734609_at) / Fold change /veh KRTAP5-7 /// NADSYN1 (11734609_at) / RFU RASL12 (11751679_a_at) / Fold change /veh RASL12 (11751679_a_at) / RFU CDKN2B (11736163_a_at) / Fold change /veh CDKN2B (11736163_a_at) / RFU PRF1 (11729649_at) / Fold change /veh PRF1 (11729649_at) / RFU, ZNF638 /// ZNF638-IT1 / Fold change vs veh, ZNF638 /// ZNF638-IT1 / RFU, PANK3 / Fold change vs veh, PANK3 / RFU, SH3YL1 / Fold change vs veh, SH3YL1 / RFU, ZEB2 / Fold change vs veh, ZEB2 / RFU, NRIP1 / Fold change vs veh, NRIP1 / RFU, PTTG1IP / Fold change vs veh, PTTG1IP / RFU, CAPN2 / Fold change vs veh, CAPN2 / RFU, MED14 / Fold change vs veh, MED14 / RFU, SNORA58 / Fold change vs veh, SNORA58 / RFU, C1orf63 / Fold change vs veh, C1orf63 / RFU, LRRFIP1 / Fold change vs veh, LRRFIP1 / RFU, NDUFAF7 / Fold change vs veh, NDUFAF7 / RFU, SLC12A2 / Fold change vs veh, SLC12A2 / RFU, IBTK / Fold change vs veh, IBTK / RFU, ESF1 / Fold change vs veh, ESF1 / Fold change vs veh, TMEM50B / RFU, TAOK1 / Fold change vs veh, TAOK1 / RFU, ACBD3 / Fold change vs veh, ACBD3 / RFU, TMA16 / Fold change vs veh, TMA16 / RFU, RWDD3 / Fold change vs veh, RWDD3 / RFU, BCAT1 / Fold change vs veh, BCAT1 / RFU, EDEM3 / Fold change vs veh, EDEM3 / RFU, TMEM33 / Fold change vs veh, TMEM33 / RFU, WDR75 / Fold change vs veh, WDR75 / RFU, AHCTF1 / Fold change vs veh, AHCTF1 / RFU, TFRC / Fold change vs veh, TFRC / RFU, ZDHHC17 / Fold change vs veh, ZDHHC17 / RFU, NOM1 / Fold change vs veh, NOM1 / RFU, ARL8B / Fold change vs veh, ARL8B / RFU, ZBTB11 / Fold change vs veh, ZBTB11 / RFU, TAMM41 / Fold change vs veh, TAMM41 / RFU, KIAA1704 /// LOC100996395 / Fold change vs veh, KIAA1704 /// LOC100996395 / RFU, ING1 / Fold change vs veh, ING1 / RFU, TRMT61B / Fold change vs veh, TRMT61B / RFU, FUBP3 / Fold change vs veh, FUBP3 / RFU, TP53 / Fold change vs veh, TP53 / RFU, TNKS2 / Fold change vs veh, TNKS2 / RFU, ZFP14 / Fold change vs veh, ZFP14 / RFU, ACTR2 / Fold change vs veh, ACTR2 / RFU, PPP3R1 / Fold change vs veh, PPP3R1 / RFU, PIK3R1 / Fold change vs veh, PIK3R1 / RFU, HNRNPA1 / Fold change vs veh, HNRNPA1 / RFU, RNF170 / Fold change vs veh, RNF170 / RFU, ZNF28 / Fold change vs veh, ZNF28 / RFU, RNGTT / Fold change vs veh, RNGTT / RFU, OGT / Fold change vs veh, OGT / RFU, BRD1 / Fold change vs veh, BRD1 / RFU, MARS / Fold change vs veh, MARS / RFU, ZNF655 / Fold change vs veh, ZNF655 / RFU, FAHD1 / Fold change vs veh, FAHD1 / RFU, BDP1 / Fold change vs veh, BDP1 / RFU, LRRCC1 / Fold change vs veh, LRRCC1 / RFU, ARID1A / Fold change vs veh, ARID1A / RFU, ZNF146 / Fold change vs veh, ZNF146 / RFU, ZNF330 / Fold change vs veh, ZNF330 / RFU, GPN3 / Fold change vs veh, GPN3 / RFU, C9orf123 / Fold change vs veh, C9orf123 / RFU, N4BP2L2 / Fold change vs veh, N4BP2L2 / RFU, ARFIP1 / Fold change vs veh, ARFIP1 / RFU, FAM179B / Fold change vs veh, FAM179B / RFU, BCL10 / Fold change vs veh, BCL10 / RFU, UHRF1BP1L / Fold change vs veh, UHRF1BP1L / RFU, BET1 / Fold change vs veh, BET1 / RFU, CNOT2 / Fold change vs veh, CNOT2 / RFU, ZNF268 / Fold change vs veh, ZNF268 / Fold change vs veh, ZNF507 / RFU, DGCR2 / Fold change vs veh, DGCR2 / RFU, WDSUB1 / Fold change vs veh, WDSUB1 / Fold change vs veh, HSP90B1 /// MIR3652 / RFU, ADSS / Fold change vs veh, ADSS / RFU, GK / Fold change vs veh, GK / RFU, ZNF148 / Fold change vs veh, ZNF148 / RFU, TAF9 / Fold change vs veh, TAF9 / RFU, SLC1A5 / Fold change vs veh, SLC1A5 / RFU, SLMO2 / Fold change vs veh, SLMO2 / RFU, ABCC4 / Fold change vs veh, ABCC4 / RFU, LOC101060439 /// RAP1B / Fold change vs veh, LOC101060439 /// RAP1B / RFU, RFX7 / Fold change vs veh, RFX7 / RFU, GTPBP10 / Fold change vs veh, GTPBP10 / RFU, CNEP1R1 / Fold change vs veh, CNEP1R1 / RFU, BIVM-ERCC5 /// ERCC5 / Fold change vs veh, BIVM-ERCC5 /// ERCC5 / RFU, ILF3 / Fold change vs veh, ILF3 / RFU 11762660_at / Fold change /veh 11762660_at / RFU VCAN (11757783_s_at) / Fold change /veh VCAN (11757783_s_at) / RFU DDX43 (11728927_at) / Fold change /veh DDX43 (11728927_at) / RFU KRT8 (11758188_x_at) / Fold change /veh KRT8 (11758188_x_at) / RFU NKD1 (11759106_at) / Fold change /veh NKD1 (11759106_at) / RFU SRD5A1 (11742802_a_at) / Fold change /veh SRD5A1 (11742802_a_at) / RFU TPSAB1 /// TPSB2 (11721975_s_at) / Fold change /veh TPSAB1 /// TPSB2 (11721975_s_at) / RFU GSTM3 (11746129_a_at) / Fold change /veh GSTM3 (11746129_a_at) / RFU IL23R (11737362_x_at) / Fold change /veh IL23R (11737362_x_at) / RFU TMEM51 (11727254_a_at) / Fold change /veh TMEM51 (11727254_a_at) / RFU PIWIL2 (11732686_x_at) / Fold change /veh PIWIL2 (11732686_x_at) / RFU ORM1 (11744905_x_at) / Fold change /veh ORM1 (11744905_x_at) / RFU CCDC152 (11743942_at) / Fold change /veh CCDC152 (11743942_at) / RFU ECM1 (11717891_a_at) / Fold change /veh ECM1 (11717891_a_at) / RFU IL23R (11748794_a_at) / Fold change /veh IL23R (11748794_a_at) / RFU TNFAIP8L3 (11732012_x_at) / Fold change /veh TNFAIP8L3 (11732012_x_at) / RFU MBOAT4 (11741988_at) / Fold change /veh MBOAT4 (11741988_at) / RFU 11764193_at / Fold change /veh 11764193_at / RFU TMEM53 (11763286_at) / Fold change /veh TMEM53 (11763286_at) / RFU MAGEB2 (11727129_at) / Fold change /veh MAGEB2 (11727129_at) / RFU TMEM200A (11744735_a_at) / Fold change /veh TMEM200A (11744735_a_at) / RFU CCDC152 (11751479_a_at) / Fold change /veh CCDC152 (11751479_a_at) / RFU FAM211A (11726209_a_at) / Fold change /veh FAM211A (11726209_a_at) / RFU RGS16 (11746705_a_at) / Fold change /veh RGS16 (11746705_a_at) / RFU VCAN (11755009_s_at) / Fold change /veh VCAN (11755009_s_at) / RFU RHOB (11743442_s_at) / Fold change /veh RHOB (11743442_s_at) / RFU RGS16 (11720943_a_at) / Fold change /veh RGS16 (11720943_a_at) / RFU RGS16 (11720944_at) / Fold change /veh RGS16 (11720944_at) / RFU, VPS4B / Fold change vs veh, VPS4B / RFU, CREB1 / Fold change vs veh, CREB1 / RFU, DNAJC13 / Fold change vs veh, DNAJC13 / RFU, GNAQ / Fold change vs veh, GNAQ / RFU, CDK5R1 / Fold change vs veh, CDK5R1 / RFU, ZRANB3 / Fold change vs veh, ZRANB3 / RFU, CUL4A / Fold change vs veh, CUL4A / RFU, CCNY / Fold change vs veh, CCNY / RFU, UFL1 / Fold change vs veh, UFL1 / RFU, COG3 / Fold change vs veh, COG3 / RFU, DIAPH2 / Fold change vs veh, DIAPH2 / RFU, SKA2 / Fold change vs veh, SKA2 / RFU, AFF3 / Fold change vs veh, AFF3 / RFU, LMF1 / Fold change vs veh, LMF1 / RFU, IPO11 / Fold change vs veh, IPO11 / RFU, DFFB / Fold change vs veh, DFFB / RFU, FOXP1 / Fold change vs veh, FOXP1 / RFU, CARD8 / Fold change vs veh, CARD8 / RFU, STRN3 / Fold change vs veh, STRN3 / RFU, ADK / Fold change vs veh, ADK / RFU, RASSF2 / Fold change vs veh, RASSF2 / RFU, WIPF1 / Fold change vs veh, WIPF1 / RFU, LARP1B / Fold change vs veh, LARP1B / RFU, RASA1 / Fold change vs veh, RASA1 / RFU, RB1 / Fold change vs veh, RB1 / RFU, PPFIA1 / Fold change vs veh, PPFIA1 / RFU, MAT2A / Fold change vs veh, MAT2A / RFU, CCT5 / Fold change vs veh, CCT5 / RFU, WDR92 / Fold change vs veh, WDR92 / RFU, CUX1 / Fold change vs veh, CUX1 / RFU, TTC7A / Fold change vs veh, TTC7A / RFU, TMEM135 / Fold change vs veh, TMEM135 / RFU, DEPTOR / Fold change vs veh, DEPTOR / RFU, CPM / Fold change vs veh, CPM / RFU, DNAJB6 / Fold change vs veh, DNAJB6 / RFU, CACNA2D3 / Fold change vs veh, CACNA2D3 / RFU, DTX4 / Fold change vs veh, DTX4 / RFU, TFCP2 / Fold change vs veh, TFCP2 / RFU, GMCL1 /// GMCL1P1 / Fold change vs veh, GMCL1 /// GMCL1P1 / RFU, AEBP2 / Fold change vs veh, AEBP2 / RFU, SNHG1 /// SNORD22 /// SNORD25 /// SNORD26 /// SNORD27 /// SNORD28 /// SNORD29 /// SNORD31 / Fold change vs veh, SNHG1 /// SNORD22 /// SNORD25 /// SNORD26 /// SNORD27 /// SNORD28 /// SNORD29 /// SNORD31 / Fold change (Aza/veh), C12orf56 (ProbeSet 11735607_a_at) / Fold change (ACY-1035/veh), C12orf56 (ProbeSet 11735607_a_at) / Fold change (Aza/veh), FGFR1OP (ProbeSet 11751329_s_at) / Fold change (ACY-1035/veh), FGFR1OP (ProbeSet 11751329_s_at) / Fold change (Aza/veh), VPS36 (ProbeSet 11739960_a_at) / Fold change (ACY-1035/veh), VPS36 (ProbeSet 11739960_a_at) / RFU SYPL1 (11715823_x_at) / Fold change /veh SYPL1 (11715823_x_at) / RFU IGFBP7 (11715501_s_at) / Fold change /veh IGFBP7 (11715501_s_at) / RFU REEP3 (11722064_at) / Fold change /veh REEP3 (11722064_at) / RFU IGLL1 (11728026_x_at) / Fold change /veh IGLL1 (11728026_x_at): dose or concentration left out as unconfirmed", "conditions": "MV-4-11 cells, 48 hours", "data": [{"smiles": "Nc1ncn([C@@H]2O[C@H](CO)[C@@H](O)[C@H]2O)c(=O)n1", "note": "[azacitidine]", "values": [{"measurement": "RFU GAP43 (11754022_s_at)", "value": 65.19, "unit": "RFU"}]}]}
